{"source": "patent US20050154035A1", "about": "“Methods of using zonisamide as an adjunctive therapy for partial seizures” (Eisai Co., Ltd., priority 2004, published 2005)", "key": {"[1]": {"test_system": "GABA/benzodiazepine receptor ionophore complex", "conditions": "in vitro, cited from earlier work"}, "[2]": {"test_system": "cultured mouse spinal cord neurons", "conditions": "10-30 μg/mL, cited from earlier work"}, "[3]": {"conditions": "in vivo; cited from earlier work"}, "[4]": {"test_system": "T-type Ca^2+ currents", "conditions": "in vitro; cited from earlier work"}, "[5]": {"assay": "Pharmacovigilance review of rhabdomyolysis / CPK elevation in zonisamide-treated patients (U.S. and Japan)", "conditions": "human, in vivo", "text": "The pharmacovigilance data that were collected, reviewed and analyzed provided the following information in respect of the incidence of rhabdomyolysis/CPK elevation in the zonisamide-treated patient population. To date, a total of 10 cases fulfill the criteria of potential rhabdomyolysis cases. These 10 cases were reviewed in detail for evaluation of possible safety signals. All 10 cases fulfill serious criteria. Of these 10 cases, seven (7) cases were reported as rhabdomyolysis and three (3) cases were reported as CPK increase.\nOf the seven (7) rhabdomyolysis cases, six (6) are verbatim cases from Dainippon and one (1) originates in the U.S. Of the seven (7) cases, three (3) were pediatric cases and four (4) were adult cases.\nOf the seven (7) rhabdomyolysis cases, two (2) cases have strong confounding factors, but the possibility of zonisamide involvement cannot be completely excluded. Two (2) cases have moderate confounding factors, and zonisamide involvement may be possible.\nOf the three (3) cases of CPK increase, one (1) is a verbatim report from Dainippon, and two (2) originated from the U.S. Of the three (3) cases, two are pediatric patients and one is an adult. Of these three (3) cases, two (2) recovered and the outcome of the third is unknown.\nOf the three (3) cases of CPK increase, one (1) case has strong confounding factors, but the possibility of zonisamide involvement cannot be completely excluded. One (1) case has weak confounding factors, and zonisamide involvement may be possible.\nEstimates of zonisamide exposure, based upon retail and mail order prescriptions, indicate that the number of unique patients taking zonisamide capsules in the U.S. is about 37,276 (total prescriptions per year/average number of prescriptions per patient per year less a calculated percentage decrease based on estimated annual dropouts) in the time between approval in 2000 and December 2002. Hospital patient data for that period, however, is not available and is not reflected in the estimates. Estimates of patient exposure for Japan indicate that the number of unique patients taking zonisamide is about 1,185,177 for time beginning with the approval in Japan through December 2002. Japanese data includes prescription and hospital patient data. Exposure from clinical trials are not included in the U.S. or Japanese exposure estimates. Based on these statistics, the estimated number of patients exposed to zonisamide in the U.S. and Japan is 1,222,453 unique patients. This is a rather conservative estimate, assuring that the number of patients actually exposed to zonisamide is unlikely to be higher than the estimate provided. Similarly, the incidences of rhabdomyolysis estimated herein are unlikely to be higher than calculated. […]"}, "[6]": {"test_system": "dopaminergic and serotonergic neurotransmission", "conditions": "in vivo microdialysis; cited from earlier work"}, "[7]": {"test_system": "rat hippocampal slices", "conditions": "10-30 μg/mL; cited from earlier work"}}}
{"smiles": "NS(=O)(=O)Cc1noc2ccccc12", "note": "[zonisamide, 1,2-benzisoxazole-3-methanesulfonamide]", "values": [{"measurement": "binding to the GABA/benzodiazepine receptor ionophore complex", "setting": "[1]; allosteric fashion", "value": "binds to the GABA/benzodiazepine receptor ionophore complex"}, {"measurement": "effect on chloride flux", "setting": "[1]", "value": "does not produce changes in chloride flux"}, {"measurement": "effect on synaptically-driven electrical activity", "setting": "[2]", "value": "suppresses synaptically-driven electrical activity"}, {"measurement": "effect on postsynaptic GABA or glutamate responses", "setting": "[2]; cultured mouse spinal cord neurons", "value": "without affecting"}, {"measurement": "doses at which many of the side effects are more frequent", "setting": "[3]", "value": "≥ 300", "unit": "mg per day"}, {"measurement": "effect on voltage-dependent, transient inward currents (T-type Ca2+ currents)", "setting": "[4]", "value": "reduces voltage-dependent, transient inward currents"}, {"measurement": "CPK increase cases with no or only weak confounding factors", "setting": "[5]", "value": 2, "unit": "cases"}, {"measurement": "rhabdomyolysis cases with no or only weak confounding factors", "setting": "[5]", "value": 3, "unit": "cases"}, {"measurement": "time from initiation of zonisamide treatment to development of CPK increase", "setting": "[5]", "value": "two (2) days and six (6) weeks"}, {"measurement": "time from initiation of zonisamide treatment to development of rhabdomyolysis", "setting": "[5]", "value": "two (2) weeks and nine (9) years"}, {"measurement": "effect on dopaminergic and serotonergic neurotransmission", "setting": "[6]", "value": "facilitates both dopaminergic and serotonergic neurotransmission"}, {"measurement": "effect on neuronal or glial uptake of [3H]-GABA", "setting": "[7]", "value": "without affecting"}]}
